Activity calls are given as the source filed them. No cut-off for these calls is given here.

Data set [1] has as its target T1, ATP-dependent translocase ABCB1 (Homo sapiens, UniProt P08183). Put plainly: Inhibition of P-glycoprotein-mediated drug efflux in human NCI/ADR-RES cells assessed as calcein AM accumulation after 30 mins by fluorescence spectrophotometry. It is filed as cell-based. Particulars: 0.5 h.
Data set [2] concerns NCI/ADR-RES. Briefly: Potentiation of vinblastine-induced cytotoxicity against P-gp expressing human NCI/ADR-RES cells assessed as reduction of vinblastine CC50 at 10 uM after 3 days by MTT assay. It is filed as functional. On the technique in general: Tetrazolium dyes change colour on reduction, which living cells bring about.
Data set [3] has as its system NCI/ADR-RES. Briefly: Cytotoxicity against human NCI/ADR-RES cells at 10 uM after 3 days by MTT assay. It is filed as functional, cell-based.
Data set [4] has as its target T1, ATP-dependent translocase ABCB1. Put plainly: Inhibition of P-glycoprotein-mediated drug efflux in human NCI/ADR-RES cells assessed as paclitaxel accumulation after 30 mins by HPLC. It is filed as cell-based. To be noted: 0.5 h.
The subject of data set [5] is NCI/ADR-RES. Briefly: Potentiation of paclitaxel-induced cytotoxicity against P-gp expressing human NCI/ADR-RES cells assessed as reduction of paclitaxel CC50 at 10 uM after 3 days by MTT assay. It is filed as functional.

T1 sequence (P08183 whole entry): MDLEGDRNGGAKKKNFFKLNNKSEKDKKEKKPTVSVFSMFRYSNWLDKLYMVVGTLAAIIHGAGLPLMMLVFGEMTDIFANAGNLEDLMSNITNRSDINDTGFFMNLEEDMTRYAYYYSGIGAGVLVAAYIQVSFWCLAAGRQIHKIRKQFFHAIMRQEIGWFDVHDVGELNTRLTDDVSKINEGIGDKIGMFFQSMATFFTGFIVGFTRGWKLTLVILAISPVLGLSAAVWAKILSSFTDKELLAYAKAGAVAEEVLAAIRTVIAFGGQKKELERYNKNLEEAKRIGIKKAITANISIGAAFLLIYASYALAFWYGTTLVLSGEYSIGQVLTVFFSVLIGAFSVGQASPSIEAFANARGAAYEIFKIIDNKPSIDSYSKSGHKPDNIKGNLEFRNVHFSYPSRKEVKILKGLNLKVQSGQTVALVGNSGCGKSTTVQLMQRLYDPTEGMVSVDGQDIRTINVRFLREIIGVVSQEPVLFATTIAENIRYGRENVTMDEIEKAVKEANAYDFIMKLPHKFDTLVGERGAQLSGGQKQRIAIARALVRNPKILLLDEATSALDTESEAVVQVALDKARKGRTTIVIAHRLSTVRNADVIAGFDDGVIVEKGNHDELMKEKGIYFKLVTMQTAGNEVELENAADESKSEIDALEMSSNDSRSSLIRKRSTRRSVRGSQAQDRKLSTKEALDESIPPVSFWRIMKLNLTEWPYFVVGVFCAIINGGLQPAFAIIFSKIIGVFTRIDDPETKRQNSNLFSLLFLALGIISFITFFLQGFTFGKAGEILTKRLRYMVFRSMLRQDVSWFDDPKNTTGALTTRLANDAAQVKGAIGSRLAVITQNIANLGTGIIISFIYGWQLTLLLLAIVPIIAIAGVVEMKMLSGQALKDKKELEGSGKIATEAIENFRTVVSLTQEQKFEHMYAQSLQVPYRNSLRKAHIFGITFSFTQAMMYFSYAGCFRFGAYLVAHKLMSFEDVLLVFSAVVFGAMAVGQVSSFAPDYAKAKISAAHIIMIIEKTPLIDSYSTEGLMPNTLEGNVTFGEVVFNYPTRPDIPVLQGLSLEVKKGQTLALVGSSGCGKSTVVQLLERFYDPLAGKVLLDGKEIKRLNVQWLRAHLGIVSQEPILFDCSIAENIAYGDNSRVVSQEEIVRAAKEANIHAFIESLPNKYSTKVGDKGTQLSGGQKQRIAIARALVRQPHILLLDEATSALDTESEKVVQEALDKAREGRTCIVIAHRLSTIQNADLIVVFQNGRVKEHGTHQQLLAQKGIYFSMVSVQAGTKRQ

Turning to `COc1c(O)cc2oc(-c3ccccc3)cc(=O)c2c1O` [OROXYLIN A], the “inhibition (INH)” value in data set [1] and in data set [4] was “Dose-dependent effect” in each case. Also, the “fold change (FC)” value in data set [2] and in data set [5] was 5 each time. Further, the result in data set [3] was inactive.

The values are drawn from ChEMBL document CHEMBL1154264, “Evaluation of the flavonoid oroxylin A as an inhibitor of P-glycoprotein-mediated cellular efflux” (J Nat Prod, 2009).
